# Tests used:
# CB2 receptors = CB2 receptors (Homo sapiens, UniProt P34972); details: relative to THC; cited from earlier work
# CB1 receptors = CB1 receptors (Homo sapiens, UniProt P21554); details: relative to THC; cited from earlier work
# [1] = Side effects reported by patients using a medication containing THC; format: in vivo, human; details: e.g. Marinol
# Excerpt: Patients using cannabinoid medications 10 prescribed for the treatment of symptoms such as pain and experiencing the undesirable side effects of the cannabinoid medications may provide relief through the administration of lithium compounds 30. […] Patients also reported a lack of motivation and a reduction in creativity while taking the medication. As a result, the patients have been unable or unwilling to perform ordinary tasks, such as, e.g., tasks associated with the patient's employment. However, upon treatment with lithium compounds 30, the alertness, concentration, motivation, and creativity of the patients were restored. As a result, the patients were able to continue to work productively while using the cannabinoid-based medication.
# [2] = patients received up to 210 milligrams per day; cited from earlier work
# [3] = lithium citrate syrup compared to lithium carbonate tablets; cited from earlier work
# [4] = 150 milligrams per day; cited from earlier work
# Sequence of CB2 receptors (P34972 whole entry): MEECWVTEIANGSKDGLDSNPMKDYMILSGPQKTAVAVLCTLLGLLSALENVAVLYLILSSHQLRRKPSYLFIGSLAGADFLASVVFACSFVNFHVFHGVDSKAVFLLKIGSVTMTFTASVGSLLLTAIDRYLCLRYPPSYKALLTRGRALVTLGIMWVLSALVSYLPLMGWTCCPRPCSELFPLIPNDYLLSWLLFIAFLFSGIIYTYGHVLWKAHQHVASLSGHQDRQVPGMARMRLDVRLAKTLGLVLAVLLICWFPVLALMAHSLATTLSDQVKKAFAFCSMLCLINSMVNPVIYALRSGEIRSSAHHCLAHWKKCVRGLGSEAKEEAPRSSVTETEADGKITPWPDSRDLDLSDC
# Sequence of CB1 receptors (P21554 whole entry): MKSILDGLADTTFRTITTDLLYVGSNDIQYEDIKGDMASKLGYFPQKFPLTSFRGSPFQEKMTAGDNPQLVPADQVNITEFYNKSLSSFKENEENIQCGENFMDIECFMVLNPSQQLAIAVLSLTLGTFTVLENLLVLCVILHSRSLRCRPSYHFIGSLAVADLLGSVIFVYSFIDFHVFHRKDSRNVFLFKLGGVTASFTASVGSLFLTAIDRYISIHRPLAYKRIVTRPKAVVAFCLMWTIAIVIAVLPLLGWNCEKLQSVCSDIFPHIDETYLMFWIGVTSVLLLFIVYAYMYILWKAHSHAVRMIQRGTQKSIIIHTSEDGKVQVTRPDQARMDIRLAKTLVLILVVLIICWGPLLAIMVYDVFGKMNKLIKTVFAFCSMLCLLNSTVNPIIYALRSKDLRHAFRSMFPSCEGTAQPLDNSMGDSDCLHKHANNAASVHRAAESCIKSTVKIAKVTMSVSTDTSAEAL
smiles,measurement,setting,value
"CCCCCc1cc(O)c2c(c1)OC(C)(C)c1ccc(C)cc1-2 [CBN, cannabinol]",agonist effect on the CB2 receptor compared with THC,CB2 receptors,weaker agonist effect
same,agonist effect on the CB1 receptor compared with THC,CB1 receptors,weaker agonist effect
"CCCCCc1cc(O)c2c(c1)OC(C)(C)[C@@H]1CCC(C)=C[C@@H]21 [THC, (−)-trans-Δ9-tetrahydrocannabinol]",side effects experienced by patients,[1],difficulty staying awake and maintaining concentration
same,toxic effects in clinical studies,[2],without toxic effects
O=C([O-])CC(O)(CC(=O)[O-])C(=O)[O-].[Li+].[Li+].[Li+] [lithium citrate],rate at which lithium enters the body,[3],more rapidly
O=C([O-])c1cc(=O)[nH]c(=O)[nH]1.[Li+] [lithium orotate],effect in the treatment of alcohol addiction,[4],beneficial
